Drawing on ChEMBL document CHEMBL5696442, “Discovery of type II inhibitors of TGFβ-activated kinase 1 (TAK1) and mitogen-activated protein kinase kinase kinase kinase 2 (MAP4K2)” (J Med Chem, 2015), this text covers inhibition and percent of control for three compounds.

Assay [1] concerns Serine/threonine-protein kinase B-raf (Homo sapiens), P15056 [V600E]. Nature of the assay: Inhibition of BRAF V600E mutant (unknown origin) at 1 uM by Ambit Kinomescan binding assay relative to control.
Assay [2] has as its target Serine/threonine-protein kinase 16 (Homo sapiens) (UniProt O75716). The assay can be described thus: Inhibition of MPSK1 Lys2 labeling site in human A-375 cells at 5 uM by KiNativ Profiling analysis relative to control. Type of assay: cell-based.
Assay [3] deals with Serine/threonine-protein kinase B-raf (Homo sapiens, UniProt P15056). The assay can be described thus: Inhibition of BRAF K2 labeling site in human Huh-7 cells at 1 uM by KiNativ Profiling analysis relative to control. The class given is cell-based.
Sequence of Serine/threonine-protein kinase B-raf (P15056 whole entry): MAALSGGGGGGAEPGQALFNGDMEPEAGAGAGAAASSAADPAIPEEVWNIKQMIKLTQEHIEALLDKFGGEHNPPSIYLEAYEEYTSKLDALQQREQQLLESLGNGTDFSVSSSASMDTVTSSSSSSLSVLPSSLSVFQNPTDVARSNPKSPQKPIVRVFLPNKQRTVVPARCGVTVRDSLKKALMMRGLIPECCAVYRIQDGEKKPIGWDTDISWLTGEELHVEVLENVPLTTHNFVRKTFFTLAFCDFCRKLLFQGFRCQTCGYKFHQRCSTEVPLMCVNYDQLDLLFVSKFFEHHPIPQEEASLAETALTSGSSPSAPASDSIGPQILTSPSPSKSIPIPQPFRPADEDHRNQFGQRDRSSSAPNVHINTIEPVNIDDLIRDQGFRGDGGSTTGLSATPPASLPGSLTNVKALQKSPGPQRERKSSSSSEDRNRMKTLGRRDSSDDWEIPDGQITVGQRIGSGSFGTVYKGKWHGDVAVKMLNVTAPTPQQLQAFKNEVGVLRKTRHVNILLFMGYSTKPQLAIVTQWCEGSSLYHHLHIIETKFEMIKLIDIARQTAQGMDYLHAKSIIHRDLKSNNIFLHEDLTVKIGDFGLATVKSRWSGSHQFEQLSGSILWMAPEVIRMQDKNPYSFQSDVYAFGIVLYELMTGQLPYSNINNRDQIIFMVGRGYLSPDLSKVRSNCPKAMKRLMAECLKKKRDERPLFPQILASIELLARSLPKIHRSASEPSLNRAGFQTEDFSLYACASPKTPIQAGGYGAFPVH
The target of assay [4] is T1, Serine/threonine-protein kinase D1 (Homo sapiens) (UniProt Q15139).
T1 sequence (whole entry): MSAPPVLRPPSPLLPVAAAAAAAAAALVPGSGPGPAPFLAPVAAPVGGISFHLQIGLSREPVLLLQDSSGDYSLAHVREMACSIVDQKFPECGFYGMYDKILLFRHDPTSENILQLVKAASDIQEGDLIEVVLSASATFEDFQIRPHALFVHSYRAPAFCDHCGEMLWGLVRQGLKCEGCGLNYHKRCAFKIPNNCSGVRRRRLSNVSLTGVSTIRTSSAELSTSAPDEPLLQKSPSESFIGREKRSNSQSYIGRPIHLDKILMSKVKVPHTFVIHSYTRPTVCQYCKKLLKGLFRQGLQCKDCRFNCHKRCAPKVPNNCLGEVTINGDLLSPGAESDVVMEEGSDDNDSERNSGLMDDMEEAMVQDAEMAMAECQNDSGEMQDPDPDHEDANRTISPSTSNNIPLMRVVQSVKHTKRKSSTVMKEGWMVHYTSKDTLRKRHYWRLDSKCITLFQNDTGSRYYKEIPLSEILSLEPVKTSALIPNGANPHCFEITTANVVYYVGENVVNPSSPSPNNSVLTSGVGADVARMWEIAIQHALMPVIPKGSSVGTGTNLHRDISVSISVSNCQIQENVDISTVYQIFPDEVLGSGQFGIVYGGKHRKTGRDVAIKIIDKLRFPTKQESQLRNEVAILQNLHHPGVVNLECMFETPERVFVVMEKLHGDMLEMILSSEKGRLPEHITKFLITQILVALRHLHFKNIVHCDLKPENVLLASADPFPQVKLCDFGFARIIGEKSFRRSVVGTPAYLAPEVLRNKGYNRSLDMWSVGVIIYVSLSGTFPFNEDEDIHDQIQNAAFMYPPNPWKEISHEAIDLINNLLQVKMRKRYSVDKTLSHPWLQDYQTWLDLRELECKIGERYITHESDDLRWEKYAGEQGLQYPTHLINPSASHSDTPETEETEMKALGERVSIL
The assay can be described thus: Inhibition of PRKD1 (unknown origin) at 10 uM by Ambit Kinomescan binding assay.

The target in assay [5] is T2, Serine/threonine-protein kinase TAO2 (Homo sapiens) (UniProt Q9UL54).
T2 sequence (whole entry): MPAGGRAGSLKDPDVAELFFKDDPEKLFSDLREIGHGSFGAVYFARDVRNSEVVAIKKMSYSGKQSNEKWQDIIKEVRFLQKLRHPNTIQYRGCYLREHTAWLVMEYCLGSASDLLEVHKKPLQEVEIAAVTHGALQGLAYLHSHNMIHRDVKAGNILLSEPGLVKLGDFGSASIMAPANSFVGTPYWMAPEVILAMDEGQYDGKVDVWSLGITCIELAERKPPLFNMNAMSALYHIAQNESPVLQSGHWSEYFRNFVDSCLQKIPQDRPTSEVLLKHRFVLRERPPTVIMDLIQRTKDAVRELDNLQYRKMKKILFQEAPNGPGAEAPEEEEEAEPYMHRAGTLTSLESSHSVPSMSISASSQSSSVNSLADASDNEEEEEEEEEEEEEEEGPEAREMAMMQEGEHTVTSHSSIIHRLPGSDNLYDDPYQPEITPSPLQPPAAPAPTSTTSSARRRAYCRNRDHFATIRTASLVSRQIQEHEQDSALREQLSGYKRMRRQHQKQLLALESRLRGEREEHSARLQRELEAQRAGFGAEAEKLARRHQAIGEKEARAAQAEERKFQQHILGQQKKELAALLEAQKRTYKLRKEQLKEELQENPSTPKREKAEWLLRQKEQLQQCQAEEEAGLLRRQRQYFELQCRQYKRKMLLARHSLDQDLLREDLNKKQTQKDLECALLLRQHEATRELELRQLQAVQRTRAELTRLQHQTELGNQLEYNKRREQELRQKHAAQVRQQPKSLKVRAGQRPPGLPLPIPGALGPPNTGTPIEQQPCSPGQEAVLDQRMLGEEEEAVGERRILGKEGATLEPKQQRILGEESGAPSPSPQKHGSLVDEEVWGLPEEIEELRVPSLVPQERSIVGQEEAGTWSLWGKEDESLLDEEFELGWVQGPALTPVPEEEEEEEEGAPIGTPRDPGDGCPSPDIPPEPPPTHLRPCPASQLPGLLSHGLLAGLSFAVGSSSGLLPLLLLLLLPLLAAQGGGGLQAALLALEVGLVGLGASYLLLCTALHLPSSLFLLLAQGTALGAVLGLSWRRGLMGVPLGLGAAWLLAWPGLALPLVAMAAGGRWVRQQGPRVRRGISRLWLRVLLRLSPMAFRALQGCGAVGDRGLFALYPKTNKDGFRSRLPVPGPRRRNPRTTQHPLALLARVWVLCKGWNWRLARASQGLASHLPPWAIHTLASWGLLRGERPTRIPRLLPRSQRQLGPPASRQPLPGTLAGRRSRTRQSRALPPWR
The assay can be described thus: Inhibition of TAO2 K2 labeling site in human Huh-7 cells at 10 uM by KiNativ Profiling analysis relative to control. Type of assay: cell-based.

Assay [6] has as its target Tyrosine-protein kinase ABL (Homo sapiens) (UniProt P00519+P42684). The assay can be described thus: Inhibition of ABL1/2 ACT labeling site in human Huh-7 cells at 1 uM by KiNativ Profiling analysis relative to control. The class given is cell-based.
Assay [7] can be described thus: Inhibition of MLK1/4 K2 labeling site in human Huh-7 cells at 1 uM by KiNativ Profiling analysis relative to control. The conditions noted are these: condition cancer.
The target in assay [8] is Fibroblast growth factor receptor 2 (Homo sapiens) (UniProt P21802). The assay can be described thus: Inhibition of FGFR2 (unknown origin) at 10 uM by Ambit Kinomescan binding assay relative to control; values are per cent of control.
Sequence of Fibroblast growth factor receptor 2 (Homo sapiens) (P21802 22-821 limits assumed): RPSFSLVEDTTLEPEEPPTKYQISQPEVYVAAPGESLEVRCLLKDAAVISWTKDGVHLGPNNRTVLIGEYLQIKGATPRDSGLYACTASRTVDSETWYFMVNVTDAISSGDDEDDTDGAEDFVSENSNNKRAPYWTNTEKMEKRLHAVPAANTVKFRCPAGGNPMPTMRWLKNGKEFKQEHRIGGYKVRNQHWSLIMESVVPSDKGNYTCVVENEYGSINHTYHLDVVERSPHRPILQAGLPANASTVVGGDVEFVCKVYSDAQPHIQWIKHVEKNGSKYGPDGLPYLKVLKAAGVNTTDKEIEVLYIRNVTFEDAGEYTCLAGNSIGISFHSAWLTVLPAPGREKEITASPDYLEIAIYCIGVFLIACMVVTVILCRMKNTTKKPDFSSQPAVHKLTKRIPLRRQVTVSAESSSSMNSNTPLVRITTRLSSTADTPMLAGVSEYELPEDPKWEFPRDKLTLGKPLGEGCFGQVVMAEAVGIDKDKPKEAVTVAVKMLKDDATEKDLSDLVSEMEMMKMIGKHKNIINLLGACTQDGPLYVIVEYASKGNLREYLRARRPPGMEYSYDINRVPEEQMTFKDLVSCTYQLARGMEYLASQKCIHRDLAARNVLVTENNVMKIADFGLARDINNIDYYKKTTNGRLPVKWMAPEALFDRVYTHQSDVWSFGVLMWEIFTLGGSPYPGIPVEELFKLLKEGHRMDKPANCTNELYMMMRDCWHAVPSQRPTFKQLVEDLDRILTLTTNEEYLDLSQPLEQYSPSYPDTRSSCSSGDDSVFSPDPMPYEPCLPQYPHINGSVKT
Assay [9] addresses Mitogen-activated protein kinase 14 (Homo sapiens, UniProt Q16539). The assay can be described thus: Inhibition of p38alpha Lys2 labeling site in human Huh-7 cells at 1 uM by KiNativ Profiling analysis relative to control. The class given is cell-based.

SMILES strings stand for the structures. Activity calls are given as the source filed them. The rule behind the calls is not given here.

Sequence of Serine/threonine-protein kinase B-raf (Homo sapiens), P15056 [V600E] (P15056 whole entry V600E): as the sequence (P15056 whole entry) above, with V600E counted along it
Sequence of Tyrosine-protein kinase ABL (Homo sapiens) (P00519 whole entry, looked up): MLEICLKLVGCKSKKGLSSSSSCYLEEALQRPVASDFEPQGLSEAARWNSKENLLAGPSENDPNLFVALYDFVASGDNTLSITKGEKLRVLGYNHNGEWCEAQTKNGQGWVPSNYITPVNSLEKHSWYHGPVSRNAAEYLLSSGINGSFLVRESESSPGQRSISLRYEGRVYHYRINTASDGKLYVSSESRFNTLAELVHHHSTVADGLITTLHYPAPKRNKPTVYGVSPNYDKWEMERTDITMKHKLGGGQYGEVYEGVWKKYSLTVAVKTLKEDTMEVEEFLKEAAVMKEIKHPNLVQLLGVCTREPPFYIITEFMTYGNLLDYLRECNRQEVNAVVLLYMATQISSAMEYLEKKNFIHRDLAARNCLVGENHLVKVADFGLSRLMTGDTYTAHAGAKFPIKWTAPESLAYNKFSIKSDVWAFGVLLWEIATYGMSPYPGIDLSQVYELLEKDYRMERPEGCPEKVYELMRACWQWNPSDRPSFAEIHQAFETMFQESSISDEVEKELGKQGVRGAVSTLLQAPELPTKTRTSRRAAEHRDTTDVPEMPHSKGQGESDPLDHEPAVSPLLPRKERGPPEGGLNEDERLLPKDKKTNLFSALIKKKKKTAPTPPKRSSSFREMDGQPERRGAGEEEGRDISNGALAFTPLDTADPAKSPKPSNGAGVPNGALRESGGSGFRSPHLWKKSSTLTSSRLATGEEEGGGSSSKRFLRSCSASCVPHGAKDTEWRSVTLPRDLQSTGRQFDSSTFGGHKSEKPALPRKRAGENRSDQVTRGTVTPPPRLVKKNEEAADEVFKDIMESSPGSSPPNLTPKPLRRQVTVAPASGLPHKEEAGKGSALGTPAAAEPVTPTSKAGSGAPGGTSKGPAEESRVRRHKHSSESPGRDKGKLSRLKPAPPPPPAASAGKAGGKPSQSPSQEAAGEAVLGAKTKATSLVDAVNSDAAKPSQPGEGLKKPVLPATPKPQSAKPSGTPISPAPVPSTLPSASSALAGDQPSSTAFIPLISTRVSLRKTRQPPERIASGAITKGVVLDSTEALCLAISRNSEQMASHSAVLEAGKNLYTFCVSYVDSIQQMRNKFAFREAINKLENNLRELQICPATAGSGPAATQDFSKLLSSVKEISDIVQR
Sequence of Tyrosine-protein kinase ABL (Homo sapiens) (P42684 whole entry, looked up): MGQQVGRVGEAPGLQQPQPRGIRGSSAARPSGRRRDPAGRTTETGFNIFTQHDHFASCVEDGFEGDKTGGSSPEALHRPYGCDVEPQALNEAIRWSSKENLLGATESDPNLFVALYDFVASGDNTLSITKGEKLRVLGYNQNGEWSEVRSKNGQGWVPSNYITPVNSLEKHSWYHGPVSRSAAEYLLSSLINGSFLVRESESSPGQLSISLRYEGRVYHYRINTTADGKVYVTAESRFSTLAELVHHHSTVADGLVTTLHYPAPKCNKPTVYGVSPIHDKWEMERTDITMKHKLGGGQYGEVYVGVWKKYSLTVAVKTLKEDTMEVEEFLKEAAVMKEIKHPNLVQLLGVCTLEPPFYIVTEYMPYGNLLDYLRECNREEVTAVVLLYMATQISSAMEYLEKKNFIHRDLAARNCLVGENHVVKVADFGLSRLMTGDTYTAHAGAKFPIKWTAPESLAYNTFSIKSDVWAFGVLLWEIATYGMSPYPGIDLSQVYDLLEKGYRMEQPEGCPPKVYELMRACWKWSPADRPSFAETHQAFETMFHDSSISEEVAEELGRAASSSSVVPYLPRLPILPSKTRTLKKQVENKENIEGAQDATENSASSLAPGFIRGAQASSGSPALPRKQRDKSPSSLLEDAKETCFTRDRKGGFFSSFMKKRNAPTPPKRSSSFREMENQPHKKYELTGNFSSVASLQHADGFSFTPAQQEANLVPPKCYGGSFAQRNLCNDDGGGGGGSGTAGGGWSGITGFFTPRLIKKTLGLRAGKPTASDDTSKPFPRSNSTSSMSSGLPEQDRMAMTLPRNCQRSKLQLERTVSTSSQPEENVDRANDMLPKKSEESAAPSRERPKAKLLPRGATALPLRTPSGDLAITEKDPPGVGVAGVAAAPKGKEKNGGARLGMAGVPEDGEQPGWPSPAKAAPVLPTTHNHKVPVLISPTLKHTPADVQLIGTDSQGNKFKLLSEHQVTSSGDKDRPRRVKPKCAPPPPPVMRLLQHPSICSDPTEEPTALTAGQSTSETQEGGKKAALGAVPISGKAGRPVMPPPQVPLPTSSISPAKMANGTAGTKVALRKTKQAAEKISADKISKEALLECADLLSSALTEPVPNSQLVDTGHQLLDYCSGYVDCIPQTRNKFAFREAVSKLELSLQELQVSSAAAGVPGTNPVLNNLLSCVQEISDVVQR
Sequence of Mitogen-activated protein kinase 14 (Q16539 whole entry): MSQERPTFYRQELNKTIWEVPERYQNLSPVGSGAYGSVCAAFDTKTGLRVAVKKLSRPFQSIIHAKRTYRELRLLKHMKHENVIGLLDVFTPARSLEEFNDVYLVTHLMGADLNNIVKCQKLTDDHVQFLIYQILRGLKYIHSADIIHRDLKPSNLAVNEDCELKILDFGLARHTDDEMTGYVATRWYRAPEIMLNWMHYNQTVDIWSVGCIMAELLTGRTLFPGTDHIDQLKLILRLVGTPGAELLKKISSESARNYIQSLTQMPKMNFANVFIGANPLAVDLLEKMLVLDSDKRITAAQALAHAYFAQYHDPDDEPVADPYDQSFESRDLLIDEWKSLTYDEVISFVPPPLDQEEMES
Sequence of Serine/threonine-protein kinase 16 (Homo sapiens) (O75716 whole entry): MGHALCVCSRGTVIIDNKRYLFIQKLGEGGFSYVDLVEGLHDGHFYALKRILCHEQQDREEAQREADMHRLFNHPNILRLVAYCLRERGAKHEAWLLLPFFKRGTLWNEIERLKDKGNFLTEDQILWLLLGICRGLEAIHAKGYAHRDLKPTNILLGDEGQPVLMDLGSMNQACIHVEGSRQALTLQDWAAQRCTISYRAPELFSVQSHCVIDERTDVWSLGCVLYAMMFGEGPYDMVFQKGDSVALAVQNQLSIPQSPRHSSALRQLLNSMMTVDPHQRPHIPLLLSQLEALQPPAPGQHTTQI

Regarding `CCN1CCN(Cc2ccc(NC(=O)c3ccc(C)c(/C=C/c4cnc5[nH]ccc5c4OC)c3)cc2C(F)(F)F)CC1`, the results for the inhibition in [1] and in assay [2] were 7.4% and 41%, respectively.

For `CCN1CCN(Cc2ccc(NC(=O)c3ccc(C)c(Oc4ccnc5[nH]ccc45)c3)cc2C(F)(F)F)CC1`, the figures for the inhibition in [3], in [5] and in assay [6] were 1.7%, 28.6% and 44.3%, respectively. The inhibition (in general, the relative decrease from the control value, in per cent) in [4] is “inactive”. In [7], this compound returned an inhibition at 1 µM of 1.5%. Further, the percent of control in assay [8] was 1.4%.

For the compound `CNc1cc(Oc2cc(C(=O)Nc3cc(N4CCN(C)CC4)cc(C(F)(F)F)c3)ccc2C)ncn1`, in assay [9], the inhibition turned out to be 22.6%.
